Test results taken from patent publication US10780090B2, “Heteroaryl compounds useful as inhibitors of SUMO activating enzyme” (Millennium Pharmaceuticals, Inc., priority 2014, dated 2020).

Target: recombinant human SAE enzyme (Homo sapiens (Human), UniProt Q9UBT2)
Assay: SAE HTRF enzyme assay
Assay type: biochemical
Conditions: for Percent Inhibition: SAE inhibition at compound concentration 0.111 μM; for inhibition at 0.111 µM: Concentration 0.111 μM, read-out: Percent Inhibition
How it was run: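 Human SAE (0.11 nM) with 0.5 μM ATP, 0.125 μM Sumo-Flag and 0.01 μM Ubc9-GST in HEPES pH 7.5, 5 mM MgCl2, 250 μM GSH; 105 min at 24 °C. Stopped with EDTA; HTRF read after 2 h with Eu-anti-Flag and APC-anti-GST. Percent inhibition or IC50 reported.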

[1] = SAE inhibition, class symbols, legend in nM

recombinant human SAE enzyme, sequence (Q9UBT2 whole entry): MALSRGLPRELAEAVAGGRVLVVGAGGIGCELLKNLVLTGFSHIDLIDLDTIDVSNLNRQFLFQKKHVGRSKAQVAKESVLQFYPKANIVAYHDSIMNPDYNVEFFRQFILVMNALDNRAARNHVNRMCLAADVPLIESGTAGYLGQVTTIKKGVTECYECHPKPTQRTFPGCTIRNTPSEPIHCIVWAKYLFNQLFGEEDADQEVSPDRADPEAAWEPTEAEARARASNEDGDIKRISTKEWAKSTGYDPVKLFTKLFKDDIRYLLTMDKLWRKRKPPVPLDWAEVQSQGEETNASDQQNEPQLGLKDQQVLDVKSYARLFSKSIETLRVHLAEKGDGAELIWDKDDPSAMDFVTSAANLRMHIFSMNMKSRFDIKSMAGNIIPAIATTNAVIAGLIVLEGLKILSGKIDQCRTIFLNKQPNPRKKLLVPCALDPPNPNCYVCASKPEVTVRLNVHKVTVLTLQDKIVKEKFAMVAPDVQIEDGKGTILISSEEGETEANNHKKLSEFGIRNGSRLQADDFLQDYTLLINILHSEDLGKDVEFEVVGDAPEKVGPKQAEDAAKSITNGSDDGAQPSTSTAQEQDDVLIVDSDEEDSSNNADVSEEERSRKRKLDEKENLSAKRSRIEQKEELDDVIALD
recombinant human SAE enzyme, sequence (Q9UBE0 whole entry partner): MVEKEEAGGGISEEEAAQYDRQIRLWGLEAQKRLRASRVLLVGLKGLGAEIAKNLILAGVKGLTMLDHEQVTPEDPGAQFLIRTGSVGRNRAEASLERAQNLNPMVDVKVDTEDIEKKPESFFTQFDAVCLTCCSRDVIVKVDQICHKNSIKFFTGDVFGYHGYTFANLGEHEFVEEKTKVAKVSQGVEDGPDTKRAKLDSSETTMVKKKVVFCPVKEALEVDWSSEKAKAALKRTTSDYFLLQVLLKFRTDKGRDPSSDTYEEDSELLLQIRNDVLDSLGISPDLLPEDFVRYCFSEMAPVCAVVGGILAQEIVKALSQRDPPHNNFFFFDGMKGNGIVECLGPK

Compound	Percent Inhibition [%]	IC50 [1] [nM]	inhibition at 0.111 µM [%]	IC50 (class symbols A/B/C) [nM]
NS(=O)(=O)OC[C@H]1C[C@@H](Nc2ncncc2C(=O)c2cc([C@@H]3CCc4ccc(Cl)cc43)cs2)C[C@@H]1O (single isomer, unassigned) [I-349b, [(1R,2S,4R)-4-{[5-({4-[(1R)-6-chloro-2,3-dihydro-1H-inden-1-yl]-2-thienyl}carbonyl)pyrimidin-4-yl]amino}-2-hydroxycyclopentyl]methyl sulfamate or [(1R,2S,4R)-4-{[5-({4-[(1S)-6-chloro-2,3-dihydro-1H-inden-1-yl]-2-thienyl}carbonyl)pyrimidin-4-yl]amino}-2-hydroxycyclopentyl]methyl sulfamate]	58	10 to 100		
Cc1sc(C(=O)c2cncnc2N[C@@H]2C[C@H](COS(N)(=O)=O)[C@@H](O)C2)nc1[C@H](O)c1cccc(Cl)c1 (single isomer, unassigned) [I-355a, [(1R,2S,4R)-4-{[5-({4-[(R)-(3-chlorophenyl)(hydroxy)methyl]-5-methyl-1,3-thiazol-2-yl}carbonyl)pyrimidin-4-yl]amino}-2-hydroxycyclopentyl]methyl sulfamate or [(1R,2S,4R)-4-{[5-({4-[(S)-(3-chlorophenyl)(hydroxy)methyl]-5-methyl-1,3-thiazol-2-yl}carbonyl)pyrimidin-4-yl]amino}-2-hydroxycyclopentyl]methyl sulfamate]	98	< 10		
Cc1sc(C(=O)c2cncnc2N[C@@H]2C[C@H](COS(N)(=O)=O)[C@@H](O)C2)nc1[C@H](O)c1cccc(Cl)c1 (single isomer, unassigned) [I-355b, [(1R,2S,4R)-4-{[5-({4-[(R)-(3-chlorophenyl)(hydroxy)methyl]-5-methyl-1,3-thiazol-2-yl}carbonyl)pyrimidin-4-yl]amino}-2-hydroxycyclopentyl]methyl sulfamate or [(1R,2S,4R)-4-{[5-({4-[(S)-(3-chlorophenyl)(hydroxy)methyl]-5-methyl-1,3-thiazol-2-yl}carbonyl)pyrimidin-4-yl]amino}-2-hydroxycyclopentyl]methyl sulfamate]	71	10 to 100		
Cc1nc2n(c1C)CCO[C@@H]2c1cc(C(=O)c2cncnc2N[C@@H]2C[C@H](COS(N)(=O)=O)[C@@H](O)C2)sc1C (single isomer, unassigned) [I-356a, [(1R,2S,4R)-4-{[5-({4-[(8R)-2,3-dimethyl-5,6-dihydro-8H-imidazo[2,1-c][1,4]oxazin-8-yl]-5-methyl-2-thienyl}carbonyl)pyrimidin-4-yl]amino}-2-hydroxycyclopentyl]methyl sulfamate or [(1R,2S,4R)-4-{[5-({4-[(8S)-2,3-dimethyl-5,6-dihydro-8H-imidazo[2,1-c][1,4]oxazin-8-yl]-5-methyl-2-thienyl}carbonyl)pyrimidin-4-yl]amino}-2-hydroxycyclopentyl]methyl sulfamate]	52	10 to 100		
Cc1nc2n(c1C)CCO[C@@H]2c1cc(C(=O)c2cncnc2N[C@@H]2C[C@H](COS(N)(=O)=O)[C@@H](O)C2)sc1C (single isomer, unassigned) [I-356b, [(1R,2S,4R)-4-{[5-({4-[(8R)-2,3-dimethyl-5,6-dihydro-8H-imidazo[2,1-c][1,4]oxazin-8-yl]-5-methyl-2-thienyl}carbonyl)pyrimidin-4-yl]amino}-2-hydroxycyclopentyl]methyl sulfamate or [(1R,2S,4R)-4-{[5-({4-[(8S)-2,3-dimethyl-5,6-dihydro-8H-imidazo[2,1-c][1,4]oxazin-8-yl]-5-methyl-2-thienyl}carbonyl)pyrimidin-4-yl]amino}-2-hydroxycyclopentyl]methyl sulfamate]	99	< 10		
NS(=O)(=O)OC[C@H]1C[C@@H](Nc2ncncc2C(=O)c2cc(Cc3cccc(Br)c3)cs2)[C@H](O)[C@@H]1O [I-26, {(1R,2R,3S,4R)-4-[(5-{[4-(3-Bromobenzyl)-2-thienyl]carbonyl}pyrimidin-4-yl)amino]-2,3-dihydroxycyclopentyl}methyl sulfamate]			100	< 10
Cc1oc(C(=O)c2cncnc2N[C@@H]2C[C@H](COS(N)(=O)=O)[C@@H](O)C2)cc1Cc1cccc(Cl)c1 [I-33, [(1R,2S,4R)-4-({5-[4-(3-chlorobenzyl)-5-methyl-2-furoyl]pyrimidin-4-yl}amino)-2-hydroxycyclopentyl]methyl sulfamate]			100	< 10
Cc1oc(C(=O)c2cncnc2N[C@@H]2C[C@H](COS(N)(=O)=O)[C@@H](O)C2)cc1Cc1cccc(Br)c1 [I-34, [(1R,2S,4R)-4-({5-[4-(3-bromobenzyl)-5-methyl-2-furoyl]pyrimidin-4-yl}amino)-2-hydroxycyclopentyl]methyl sulfamate]			99	< 10
NS(=O)(=O)OC[C@H]1C[C@@H](Nc2ncncc2C(=O)c2cc(Cc3cccc(Cl)c3)c(CO)s2)C[C@@H]1O [I-35, {(1R,2S,4R)-4-[(5-{[4-(3-chlorobenzyl)-5-(hydroxymethyl)-2-thienyl]carbonyl}pyrimidin-4-yl)amino]-2-hydroxycyclopentyl}methyl sulfamate]			98	< 10
Cc1sc(C(=O)c2cncnc2N[C@@H]2C[C@H](COS(N)(=O)=O)[C@@H](O)C2)cc1Cn1cc(I)cn1 [I-37, [(1R,2S,4R)-2-hydroxy-4-{[5-({4-[(4-iodo-1H-pyrazol-1-yl)methyl]-5-methyl-2-thienyl}carbonyl)pyrimidin-4-yl]amino}cyclopentyl]methyl sulfamate]			98	
Cc1sc(C(=O)c2cncnc2N[C@@H]2C[C@H](COS(N)(=O)=O)[C@@H](O)C2)cc1Cn1cc(Br)cn1 [I-39, [(1R,2S,4R)-4-{[5-({4-[(4-bromo-1H-pyrazol-1-yl)methyl]-5-methyl-2-thienyl}carbonyl)pyrimidin-4-yl]amino}-2-hydroxycyclopentyl]methyl sulfamate]			98	
NS(=O)(=O)OC[C@H]1C[C@@H](Nc2ncncc2C(=O)c2cc(Cc3cccc(Cl)c3)cs2)C[C@@H]1O [I-43, {(1R,2S,4R)-4-[(5-{[4-(3-chlorobenzyl)-2-thienyl]carbonyl}pyrimidin-4-yl)amino]-2-hydroxycyclopentyl}methyl sulfamate]			99	
COCc1sc(C(=O)c2cncnc2N[C@@H]2C[C@H](COS(N)(=O)=O)[C@@H](O)C2)cc1Cc1cccc(Cl)c1 [I-44, {(1R,2S,4R)-4-[(5-{[4-(3-chlorobenzyl)-5-(methoxymethyl)-2-thienyl]carbonyl}pyrimidin-4-yl)amino]-2-hydroxycyclopentyl}methyl sulfamate]			100	< 10
Cc1cccc(Cc2cc(C(=O)c3cncnc3N[C@@H]3C[C@H](COS(N)(=O)=O)[C@@H](O)C3)sc2C)c1 [I-45, {(1R,2S,4R)-2-hydroxy-4-[(5-{[5-methyl-4-(3-methylbenzyl)-2-thienyl]carbonyl}pyrimidin-4-yl)amino]cyclopentyl}methyl sulfamate]			99	< 10
NS(=O)(=O)OC[C@H]1C[C@@H](Nc2ncncc2C(=O)c2cc(Cc3cccc(Br)n3)c(Cl)s2)C[C@@H]1O [I-46, [(1R,2S,4R)-4-{[5-({4-[(6-bromopyridin-2-yl)methyl]-5-chloro-2-thienyl}carbonyl)pyrimidin-4-yl]amino}-2-hydroxycyclopentyl]methyl sulfamate]			98	
Cc1sc(C(=O)c2cncnc2N[C@@H]2C[C@H](COS(N)(=O)=O)[C@@H](O)C2)cc1Cc1cccc(Cl)c1 [I-51, {(1R,2S,4R)-4-[(5-{[4-(3-chlorobenzyl)-5-methyl-2-thienyl]carbonyl}pyrimidin-4-yl)amino]-2-hydroxycyclopentyl}methyl sulfamate]			100	< 10
Cc1sc(C(=O)c2cncnc2N[C@@H]2C[C@H](COS(N)(=O)=O)[C@@H](O)C2)cc1Cc1cccc(Br)c1 [I-52, {(1R,2S,4R)-4-[(5-{[4-(3-bromobenzyl)-5-methyl-2-thienyl]carbonyl}pyrimidin-4-yl)amino]-2-hydroxycyclopentyl}methyl sulfamate]			99	< 10
NS(=O)(=O)OC[C@H]1C[C@@H](Nc2ncncc2C(=O)c2cc(Cc3cccc(Br)n3)cs2)C[C@@H]1O [I-53, [(1R,2S,4R)-4-{[5-({4-[(6-bromopyridin-2-yl)methyl]-2-thienyl}carbonyl)pyrimidin-4-yl]amino}-2-hydroxycyclopentyl]methyl sulfamate]			99	
Cc1sc(C(=O)c2cncnc2N[C@@H]2C[C@H](COS(N)(=O)=O)[C@@H](O)C2)cc1Cn1cc(Cl)cn1 [I-55, [(1R,2S,4R)-4-{[5-({4-[(4-chloro-1H-pyrazol-1-yl)methyl]-5-methyl-2-thienyl}carbonyl)pyrimidin-4-yl]amino}-2-hydroxycyclopentyl]methyl sulfamate]			97	
Cc1cccc(Cc2coc(C(=O)c3cncnc3N[C@@H]3C[C@H](COS(N)(=O)=O)[C@@H](O)C3)c2)c1 [I-57, [(1R,2S,4R)-2-hydroxy-4-({5-[4-(3-methylbenzyl)-2-furoyl]pyrimidin-4-yl}amino)cyclopentyl]methyl sulfamate]			98	
NS(=O)(=O)OC[C@H]1C[C@@H](Nc2ncncc2C(=O)c2cc(Cc3cccc(Br)c3)cs2)C[C@@H]1O [I-59, {(1R,2S,4R)-4-[(5-{[4-(3-Bromobenzyl)-2-thienyl]carbonyl}pyrimidin-4-yl)amino]-2-hydroxycyclopentyl}methyl sulfamate]			99	
Cc1cccc(Cc2csc(C(=O)c3cncnc3N[C@@H]3C[C@H](COS(N)(=O)=O)[C@@H](O)C3)c2)c1 [I-60, {(1R,2S,4R)-2-hydroxy-4-[(5-{[4-(3-methylbenzyl)-2-thienyl]carbonyl}pyrimidin-4-yl)amino]cyclopentyl}methyl sulfamate]			99	
